Values quoted from earlier work as cited in patent US10590413B2, “Chiral control” (WAVE LIFE SCIENCES LTD., priority 2012, dated 2020).
Read-outs that look alike come from different tables or passages of the source.

How the values were obtained:
NK activity = conditions: cited from earlier work
human PBMC = conditions: cited from earlier work
[1] = oligo 1619 alone or with a second "bad" CpG oligonucleotide added; cited from earlier work
[2] = test system: Murine IL-6 production and B cell activation; conditions: cited from earlier work; for IL-6 (pg/ml) CH12.LX: CH12.LX cells; for IL-6 (pg/ml) SPLENIC B CELL: splenic B cells
[3] = test system: ODN-induced cytokine expression; conditions: ELISA on supernatants from DBA/2 spleen cells, 2 × 10^7 cells/ml, 24 hr, ODN at 30 μg/ml; cited from earlier work
[4] = ODN 12 μg/ml, 24 hr, 10% autologous serum, level above wells with no ODN, ELISA
[5] = unstimulated control ≤10 pg/ml, US 6,239,116 Table 2

## 1619 (DNA TCCATGTCGTTCCTGATGCT; chemistry not given here) [Oligonucleotide 1619]
NK activity; Expt. 3, None = 0.00
  LU/10^6, Mouse Cells: 3.35 LU/10^6
NK activity; Table 3 of U.S. Pat. No. 6,214,806
  NK activity LU/10^5 Mouse Cells: 3.35 LU/10^5
NK activity; Table 9 of U.S. Pat. No. 6,207,646
  NK activity LU/10^6 Mouse Cells: 3.35 LU/10^6
Human PBMC; ODN 12 μg/ml, 4 hr, 10% autologous serum, level above wells with no ODN, ELISA
  TNF-α: 450 pg/mL
Human PBMC; [4]
  GM-CSF: 80 pg/mL
  IFN-γ: 200 pg/mL
  IL-6: 275 pg/mL
  IL-12: 450 pg/mL
Human PBMC
  GM-CSF: 80
  IFN-γ: 200
  IL-6: 275
  IL-12: >500
  TNF-α: 450
[1]
  IL-12 in pg/ml: 6 pg/mL
[2]
  IL-6 (pg/ml) CH12.LX: 1555 ± 304 pg/mL
  IL-6 (pg/ml) SPLENIC B CELL: 2908 ± 129 pg/mL
[2]; [5]
  IL-6 (pg/ml) CH12.LX: 1555 ± 304 pg/mL
  IL-6 (pg/ml) SPLENIC B CELL: 2908 ± 129 pg/mL
[2]; cells stimulated with 20 μM CpG O-ODN, mean ± SD of triplicates
  SI (stimulation index, [3H] uridine uptake, fold increase from unstimulated control): 12.5 ± 1.0
[2]; fold increase from unstimulated control, 20 μM CpG O-ODN, mean ± SD of triplicates
  SI (stimulation index, [3H] uridine uptake): 12.5 ± 1.0
[2]; measured by ELISA, unstimulated culture 547 ± 82 ng/ml
  IgM: 8243 ± 698 ng/mL
[3]
  ODN-induced cytokine expression IFN-γ: 4628 pg/mL
  ODN-induced cytokine expression IL-6: 1405 pg/mL
  ODN-induced cytokine expression IL-12: 3130 pg/mL
